Values of other authors, collected in US20210361600A1, “METHODS FOR INDUCING CHONDROGENESIS” (THE SCRIPPS RESEARCH INSTITUTE, priority 2017, published 2021).

Legend:
FLNA FC-1 fragment = settings: previously validated with BKA affinity probe; cited from earlier work
CBFβ = settings: previously demonstrated; cited from earlier work

Compound: O=C(O)c1ccccc1C(=O)Nc1ccc(-c2ccccc2)cc1 [KGN, kartogenin]
- binding to FC-1 fragment of FLNA (FLNA FC-1 fragment): directly mediate the binding
- nuclear localization of CBFβ (CBFβ): increase the nuclear localization of CBFβ
